# Assay results taken from patent US20240382465A1, “AROMATIC ACETYLENE DERIVATIVE, AND PREPARATION METHOD THEREFOR AND USE THEREOF” (priority 2021, published 2024).
# Like-named read-outs stand apart in the source and are kept apart here.
# Legend:
# [1] = test system: E. coli ATCC 25922; test: Antibacterial activity, MIC by broth microdilution (CLSI); format: cell-based; conditions: Escherichia coli
# Description: (§1) The in vitro minimum inhibitory concentration (MIC) was determined in accordance with the CLSI guidelines, and was measured using the broth microdilution method.
# (§2) The experimental process is briefly described as follows: The test compound was dissolved in DMSO to prepare a […] stock solution, which was then prepared into 11 twice-diluted 100× high-concentration working solutions (the final concentration of the system was 64 μg/mL-0.06 μg/mL) using DMSO. The strains (K. pneumoniae ATCC13883 and E. coli ATCC 25922) frozen in −80° C. glycerol were inoculated into solid agar medium, placed in an incubator at 35° C. for 18-24 hours of incubation. After the preparation of strains was completed, an appropriate amount of solid plate culture was collected, resuspended in physiological saline, and mixed well. The bacterial suspension was adjusted to a suitable turbidity using a turbidity meter, containing approximately 1×10^8 cfu/mL bacteria. Then the bacterial suspension with the adjusted turbidity was diluted to a bacterial concentration of 5×10^5 cfu/ml using the culture medium for measurement, to complete the preparation of the inoculum solution. 198 μL of the inoculum solution was inoculated into a 96-well plate, and then added with 2 μL of a 100× high-concentration working solution of the compound. Then the 96-well plate was placed at 35° C. for 18 to 24 hours of incubation.
# [2] = test system: K. pneumoniae ATCC13883; test: as above; format: cell-based; conditions: Klebsiella pneumoniae
# Description: as §1, §2
# [3] = target: recombinant Pseudomonas aeruginosa LpxC (Pseudomonas aeruginosa (strain ATCC 15692 / DSM 22644 / CIP 104116 / JCM 14847 / LMG 12228 / 1C / PRS 101 / PAO1), UniProt P47205); test: Inhibition of LpxC enzymatic activity (fluorescamine assay); format: biochemical
# Description: The degree of inhibition of the enzymatic activity of recombinant Pseudomonas aeruginosa LpxC by the compounds of the present disclosure under in vitro conditions was determined using the following method.
# The experimental procedure is briefly described as follows: The test compound was first dissolved in DMSO to prepare a 10 mM stock solution. The reaction was carried out in a 96-well microplate. First, 20 μL of recombinant Pseudomonas aeruginosa LpxC (purchased from Signalway Antibody, product number AP74647-2) was added to each well, with a final concentration of 5 nM. 5 μL of the compound to be tested was then added, and the compound was diluted 4 times to 8 concentration points with a concentration range of 0.61-10,000 nM. 5 μL of LpxC substrate UDP-3-O—(R-3-hydroxydecanoyl)-GlcNAc (purchased from Biosynth Carbosynth, product number: mu75071) was added, with a final concentration of the substrate of 10 μM. The plate was incubated at 25° C. for 120 minutes. Then 20 μL of 2.0 mg/mL fluorescamine (purchased from sigmaaldrich, product number: F9015, solvent: 1:1 dimethylformamide/acetonitrile) was added to the reaction system, and mixed well for 10 minutes of reaction. Finally, 50 μL of 200 mM sodium phosphate buffer (pH 8.0) was added to terminate the reaction. Reading was carried out using a microplate reader (BMG), and the excitation and emission wavelengths were 390 and 495 nm respectively. By comparing with the fluorescence intensity ratio of the control group ([…]), the percentage inhibition rate of the compound at each concentration was calculated.
# [4] = ATCC25922, E. coli ATCC 25922, 35° C., 18 to 24 hours, read-out: MIC(E. coli)
# [5] = K. pneumoniae ATCC13883, 35° C., 18 to 24 hours, read-out: MIC(K. Pneumoniae)
# [6] = recombinant P. aeruginosa LpxC 5 nM, substrate 10 μM, 25° C., 120 minutes, read-out: IC50
smiles,measurement,setting,value
"C[C@H](O)c1nccn1Cc1cc(-c2ccc(C#Cc3ccc(CN4CCOCC4)cc3)cc2)on1 [Example 2, (S)-1-(1-((5-(4-((4-(morpholinomethyl)phenyl)ethynyl)phenyl)isoxazol-3-yl)methyl)-1H-imidazol-2-yl)ethan-1-ol]",MIC,[1]; [4],0.5 µg/mL
same,MIC,[2]; [5],1 µg/mL
same,IC50,[3]; [6],3.07 nM
"C[C@H](O)c1nccn1Cc1cc(-c2ccc(C#Cc3ccc(CN4CCOCC4)cc3)cc2)no1 [Example 3, (S)-1-(1-((3-(4-((4-(morpholinomethyl)phenyl)ethynyl)phenyl)isoxazol-5-yl)methyl)-1H-imidazol-2-yl)ethan-1-ol]",MIC,[1]; [4],1 µg/mL
same,MIC,[2]; [5],2 µg/mL
same,IC50,[3]; [6],24.9 nM
"C[C@H](O)c1nccn1Cc1cc(-c2ccc(C#Cc3ccc(C(=O)N4CCOCC4)cc3)cc2)on1 [Example 6, (S)-(4-((4-(3-((2-(1-hydroxyethyl)-1H-imidazol-1-yl)methyl)isoxazol-5-yl)phenyl)ethynyl)phenyl)(morpholino)methanone]",MIC,[1]; [4],2 µg/mL
same,MIC,[2]; [5],4 µg/mL
same,IC50,[3]; [6],12.9 nM
"C[C@H](O)c1nccn1Cc1cc(-c2ccc(C#Cc3ccccc3)cc2)on1 [Example 7, (S)-1-(1-((5-(4-(phenylethynyl)phenyl)isoxazol-3-yl)methyl)-1H-imidazol-2-yl)ethan-1-ol]",MIC,[1]; [4],0.25 µg/mL
same,MIC,[2]; [5],0.5 µg/mL
same,IC50,[3]; [6],73.1 nM
"C[C@H](O)c1nccn1Cc1cc(-c2ccc(C#Cc3cccnc3)cc2)on1 [Example 9, (S)-1-(1-((5-(4-(pyridin-3-ylethynyl)phenyl)isoxazol-3-yl)methyl)-1H-imidazol-2-yl)ethan-1-ol]",MIC,[1]; [4],1 µg/mL
same,MIC,[2]; [5],2 µg/mL
same,IC50,[3]; [6],27.1 nM
"C[C@H](O)c1nccn1Cc1cc(-c2ccc(C#Cc3ccncc3)cc2)on1 [Example 10, (S)-1-(1-((5-(4-(pyridin-4-ylethynyl)phenyl)isoxazol-3-yl)methyl)-1H-imidazol-2-yl)ethan-1-ol]",MIC,[1]; [4],0.5 µg/mL
same,MIC,[2]; [5],1 µg/mL
same,IC50,[3]; [6],30.4 nM
"C[C@H](O)c1nccn1Cc1cc(-c2ccc(C#Cc3ccc(CN4CCC(O)CC4)cc3)cc2)on1 [Example 18, (S)-1-(4-((4-(3-((2-(1-hydroxyethyl)-1H-imidazol-1-yl)methyl)isoxazol-5-yl)phenyl)ethynyl)benzyl)piperidin-4-ol]",MIC,[1]; [4],2 µg/mL
same,MIC,[2]; [5],4 µg/mL
same,IC50,[3]; [6],9.84 nM
"C[C@H](O)c1nccn1Cc1cc(-c2ccc(C#Cc3ccc(C(N)=O)cc3)cc2)on1 [Example 23, (S)-4-((4-(3-((2-(1-hydroxyethyl)-1H-imidazol-1-yl)methyl)isoxazol-5-yl)phenyl)ethynyl)benzamide]",MIC,[1]; [4],0.25 µg/mL
same,MIC,[2]; [5],1 µg/mL
same,IC50,[3]; [6],7.75 nM
"C[C@H](O)c1nccn1Cc1cc(-c2ccc(C#Cc3ccc(C(=O)O)cc3)cc2)on1 [Example 24, (S)-4-((4-(3-((2-(1-hydroxyethyl)-1H-imidazol-1-yl)methyl)isoxazol-5-yl)phenyl)ethynyl)benzoic acid]",MIC,[1]; [4],4 µg/mL
same,MIC,[2]; [5],8 µg/mL
same,IC50,[3]; [6],22.2 nM
"C[C@H](O)c1nccn1Cc1cc(-c2ccc(C#Cc3ccc(C(=O)NCCO)cc3)cc2)on1 [Example 25, (S)-N-(2-Hydroxyethyl)-4-((4-(3-((2-(1-hydroxyethyl)-1H-imidazol-1-yl)methyl)isoxazol-5-yl)phenyl)ethynyl)benzamide]",MIC,[1]; [4],1 µg/mL
same,MIC,[2]; [5],4 µg/mL
same,IC50,[3],20.3 nM
"CC(=O)c1ccc(C#Cc2ccc(-c3cc(Cn4ccnc4[C@H](C)O)no3)cc2)cc1 [Example 26, (S)-1-(4-((4-(3-((2-(1-hydroxyethyl)-1H-imidazol-1-yl)methyl)isoxazol-5-yl)phenyl)ethynyl)phenyl)ethan-1-one]",MIC,[1]; [4],0.125 µg/mL
same,MIC,[2]; [5],0.5 µg/mL
same,IC50,[3]; [6],71.7 nM
"C[C@H](O)c1nccn1Cc1cc(-c2ccc(C#Cc3ccc(CCC(=O)O)cc3)cc2)on1 [Example 27, (S)-3-(4-((4-(3-((2-(1-hydroxyethyl)-1H-imidazol-1-yl)methyl)isoxazol-5-yl)phenyl)ethynyl)phenyl)propanoic acid]",MIC,[1]; [4],1 µg/mL
same,MIC,[2]; [5],2 µg/mL
same,IC50,[3]; [6],4.25 nM
"C[C@H](O)c1nccn1Cc1cc(-c2ccc(C#Cc3ccc(C(N)=O)nc3)cc2)on1 [Example 28, (S)-5-((4-(3-((2-(1-Hydroxyethyl)-1H-imidazol-1-yl)methyl)isoxazol-5-yl)phenyl)ethynyl)picolinamide]",MIC,[1]; [4],1 µg/mL
same,MIC,[2]; [5],2 µg/mL
same,IC50,[3],19.9 nM
"C[C@H](O)c1nccn1Cc1cc(-c2ccc(C#Cc3ccc(OCCO)cc3)cc2)on1 [Example 29, (S)-1-(1-((5-(4-((4-(2-hydroxyethoxy)phenyl)ethynyl)phenyl)isoxazol-3-yl)methyl)-1H-imidazol-2-yl)ethan-1-ol]",MIC,"[1]; ATCC25922, read-out: MIC(E. coli)",0.25 µg/mL
same,MIC,"[2]; ATCC13883, read-out: MIC(K. Pneumoniae)",0.25 µg/mL
same,IC50,[3]; [6],14 nM
"C[C@H](O)c1nccn1Cc1cc(-c2ccc(C#Cc3ccc(C(O)CO)cc3)cc2)on1 (stereo partly drawn) [Example 30, 1-(4-((4-(3-((2-((S)-1-hydroxyethyl)-1H-imidazol-1-yl)methyl)isoxazol-5-yl)phenyl)ethynyl)phenyl)ethane-1,2-diol]",MIC,[1]; [4],0.5 µg/mL
same,MIC,[2]; [5],1 µg/mL
same,IC50,[3]; [6],12.7 nM
C[C@H](O)c1nccn1Cc1cc(-c2ccc(C#Cc3ccc(CNC4CCS(=O)(=O)C4)cc3)cc2)on1 (some centres unmarked) [Example 31],MIC,[1]; [4],2 µg/mL
same,MIC,[2]; [5],4 µg/mL
same,IC50,[3],6.06 nM
"C[C@H](O)c1nccn1Cc1cc(-c2ccc(C#Cc3ccc(Cn4cccn4)cc3)cc2)on1 [Example 33, (S)-1-(1-((5-(4-((4-((1H-pyrazol-1-yl)methyl)phenyl)ethynyl)phenyl)isoxazol-3-yl)methyl)-1H-imidazol-2-yl)ethan-1-ol]",MIC,[1]; [4],0.125 µg/mL
same,MIC,[2]; [5],0.25 µg/mL
same,IC50,[3]; [6],28.1 nM
"C[C@H](O)c1nccn1Cc1cc(-c2ccc(C#Cc3ccc(CNCCO)cc3)cc2)on1 [Example 34, (S)-2-((4-((4-(3-((2-(1-hydroxyethyl)-1H-imidazol-1-yl)methyl)isoxazol-5-yl)phenyl)ethynyl)benzyl)amino)ethan-1-ol]",MIC,[1]; [4],1 µg/mL
same,MIC,[2]; [5],2 µg/mL
same,IC50,[3],4.86 nM
"C[C@H](O)c1nccn1Cc1cc(-c2ccc(C#Cc3ccc(CNCC(N)=O)cc3)cc2)on1 [Example 35, (S)-2-((4-((4-(3-((2-(1-hydroxyethyl)-1H-imidazol-1-yl)methyl)isoxazol-5-yl)phenyl)ethynyl)benzyl)amino)acetamide]",MIC,[1]; [4],0.25 µg/mL
same,MIC,[2]; [5],0.5 µg/mL
same,IC50,[3],14.9 nM
"C[C@H](O)c1nccn1Cc1cc(-c2ccc(C#Cc3ccc(CNCC(=O)O)cc3)cc2)on1 [Example 99, (S)-(4-((4-(3-((2-(1-hydroxy-ethyl)-1H-imidazol-1-yl)methyl)isoxazol-5-yl)phenyl)ethynyl)benzyl)glycinate]",MIC,[1]; [4],4 µg/mL
same,IC50,[3],19.4 nM
"C[C@H](O)c1nccn1Cc1cc(-c2ccc(C#Cc3cccc(C(=O)O)c3)cc2)on1 [Example 107, (S)-3-((4-(3-((2-(1-hydroxy-ethyl)-1H-imidazol-1-yl)methyl)isoxazol-5-yl)phenyl)ethynyl) benzoic acid]",MIC,[1]; [4],8 µg/mL
same,IC50,[3]; [6],16.3 nM
"C[C@H](O)c1nccn1Cc1cc(-c2ccc(C#Cc3cccc(CCC(=O)O)c3)cc2)on1 [Example 109, (S)-3-(3-((4-(3-((2-(1-hydroxyethyl)-1H-imidazol-1-yl)methyl)isoxazol-5-yl)phenyl)ethynyl)phenyl)propanoic acid]",MIC,[1]; [4],4 µg/mL
same,IC50,[3]; [6],23.4 nM
"C[C@H](O)c1nccn1Cc1cc(-c2ccc(C#Cc3cccc(OCC(=O)O)c3)cc2)on1 [Example 110, (S)-2-(3-((4-(3-((2-(1-hydroxyethyl)-1H-imidazol-1-yl)methyl)isoxazol-5-yl)phenyl)ethynyl)phenoxy)acetic acid]",MIC,[1]; [4],8 µg/mL
same,IC50,[3]; [6],11.2 nM
